The structures appear in SMILES notation.

For the first experiment, the target named is CDK2 (human) (UniProt P24941). In words: Cell-Based Assay. The note with it: mda-mb-435.
The molecule `COC(=O)NCC#Cc1c(F)ccc2c1/C(=C/c1[nH]cnc1C)C(=O)N2` showed an IC50 of less than 3.5 µM.

For `CCC(O)C#Cc1c([N+](=O)[O-])ccc2c1/C(=C/c1[nH]cnc1C)C(=O)N2` (configuration not stated), the IC50 is less than 3.5 µM.

For `Cc1nc[nH]c1/C=C1\C(=O)Nc2ccc(F)c(C#CCC(C)O)c21` (configuration not stated), the IC50 is less than 3.5 µM.

`CCOC(=O)C(CC#Cc1c(F)ccc2c1/C(=C/c1[nH]cnc1C)C(=O)N2)NC(C)=O` (configuration not stated) yielded an IC50 of less than 3.5 µM.

On to `CCC(O)C#Cc1c(F)ccc2c1/C(=C/c1[nH]cnc1C)C(=O)N2` (configuration not stated), for which the IC50 was less than 3.5 µM.

Staying with this experiment, now noted: sw480.
With `CNCC#Cc1c(F)ccc2c1/C(=C/c1[nH]cnc1C)C(=O)N2`, the IC50 was less than 1 µM.

Consider `CCC(O)C#Cc1c([N+](=O)[O-])ccc2c1/C(=C/c1[nH]cnc1C)C(=O)N2` (configuration not stated), for which the IC50 was less than 1 µM.

`CCC(O)C#Cc1c(F)ccc2c1/C(=C/c1[nH]cnc1C)C(=O)N2` (configuration not stated) showed a half-maximal inhibitory concentration (IC50) of less than 1 µM.

Consider `CCC(N)(C#Cc1c(F)ccc2c1/C(=C/c1[nH]cnc1C)C(=O)N2)CC`, for which the IC50 was less than 1 µM.

The target in a further experiment is CDK2 (UniProt P24941). Description: Enzyme Assay.
Conditions: not given
Regarding `CNCC#Cc1c(F)ccc2c1/C(=C/c1[nH]cnc1C)C(=O)N2`, the IC50 is less than 4 µM.

As for `CNC(=O)OCC#Cc1cccc2c1/C(=C/c1[nH]ccc1OC)C(=O)N2`, the IC50 is less than 4 µM.

`CCC(O)C#Cc1cccc2c1/C(=C/c1[nH]ccc1OC)C(=O)N2` (configuration not stated) returned an IC50 of less than 4 µM.

Regarding `COc1cc[nH]c1/C=C1\C(=O)Nc2cccc(C#CCO)c21`, the IC50 was less than 4 µM.

`Cc1nc[nH]c1/C=C1\C(=O)Nc2ccc(F)c(C#CCNC(N)=O)c21` displayed an IC50 of less than 4 µM.

With `COc1cc[nH]c1/C=C1\C(=O)Nc2cccc(C#CC3(O)CCCC3)c21`, the IC50 was less than 4 µM.

The molecule `COC(=O)CCC#Cc1c(N)ccc2c1/C(=C/c1[nH]ccc1OC)C(=O)N2` yielded an IC50 of less than 4 µM.

In turn, `CCN(CC)CC#Cc1c(F)ccc2c1/C(=C/c1[nH]cnc1C)C(=O)N2` registered an IC50 of less than 4 µM.

`COc1cc[nH]c1/C=C1\C(=O)Nc2ccc(NC(=O)c3ccncc3)c(C#CCO)c21` displayed an IC50 of less than 4 µM.

`COc1cc[nH]c1/C=C1\C(=O)Nc2cccc(C#CCCCO)c21`: the IC50 is less than 4 µM.

`CNCC#Cc1cccc2c1/C(=C/c1[nH]ccc1OC)C(=O)N2` yielded an IC50 of less than 4 µM.

`COC(=O)CCCC#Cc1cccc2c1/C(=C/c1[nH]ccc1OC)C(=O)N2` registered an IC50 of less than 4 µM.

For `COc1cc[nH]c1/C=C1\C(=O)Nc2cccc(C#CCCCC(N)=O)c21`, the IC50 is less than 4 µM.

In turn, `CCC(C)(O)C#Cc1cccc2c1/C(=C/c1[nH]ccc1OC)C(=O)N2` (configuration not stated) showed an IC50 of less than 4 µM.

In the case of `COc1cc[nH]c1/C=C1\C(=O)Nc2cccc(C#CC(C)(O)CC(C)C)c21` (configuration not stated), the IC50 was less than 4 µM.

For `CCCCCC(O)C#Cc1cccc2c1/C(=C/c1[nH]ccc1OC)C(=O)N2` (configuration not stated), the IC50 was less than 4 µM.

Regarding `Cc1nc[nH]c1/C=C1\C(=O)Nc2ccc(F)c(C#CCOC(N)=O)c21`, the IC50 is less than 4 µM.

The molecule `CCC(O)C#Cc1c([N+](=O)[O-])ccc2c1/C(=C/c1[nH]cnc1C)C(=O)N2` (configuration not stated) had an IC50 of less than 4 µM.

The molecule `Cc1nc[nH]c1/C=C1\C(=O)Nc2ccc(F)c(C#CCO)c21` returned an IC50 of less than 4 µM.

Take `COC(=O)CCC#Cc1cccc2c1/C(=C/c1[nH]ccc1OC)C(=O)N2`: the IC50 was less than 4 µM.

Molecule `COc1cc[nH]c1/C=C1\C(=O)Nc2ccc(N)c(C#CCO)c21` showed an IC50 of less than 4 µM.

On to `COC(=O)C(CC#Cc1cccc2c1/C(=C/c1[nH]ccc1OC)C(=O)N2)C(=O)OC`, for which the IC50 is less than 4 µM.

`Cc1nc[nH]c1/C=C1\C(=O)Nc2ccc(F)c(C#CCC(C)O)c21` (configuration not stated) registered an IC50 of less than 4 µM.

For the molecule `COc1cc[nH]c1/C=C1\C(=O)Nc2cccc(C#CCCCC(=O)O)c21`, the IC50 is less than 4 µM.

On to `COc1cc[nH]c1/C=C1\C(=O)Nc2cccc(C#CC(C)(C)O)c21`, for which the IC50 was less than 4 µM.

Consider `COc1cc[nH]c1/C=C1\C(=O)Nc2cccc(C#CCCCCO)c21`, for which the IC50 is less than 4 µM.

Turning to `COc1cc[nH]c1/C=C1\C(=O)Nc2cccc(C#CCCC(=O)O)c21`, the IC50 was less than 4 µM.

As for `COc1cc[nH]c1/C=C1\C(=O)Nc2cccc(C#CC3(O)CCCCC3)c21`, the IC50 is less than 4 µM.

Molecule `CCCCC[C@H](O)C#Cc1cccc2c1/C(=C/c1[nH]ccc1OC)C(=O)N2` gave an IC50 of less than 4 µM.

With `COc1cc[nH]c1/C=C1\C(=O)Nc2cccc(C#CCN)c21`, the IC50 is less than 4 µM.

The molecule `Cc1nc[nH]c1/C=C1\C(=O)Nc2ccc(F)c(C#CCN(C)C)c21` gave an IC50 of less than 4 µM.

Regarding `COc1cc[nH]c1/C=C1\C(=O)Nc2cccc(C#CCNCc3ccccc3)c21`, the IC50 is less than 4 µM.

For `CCOC(=O)C(CC#Cc1c(F)ccc2c1/C(=C/c1[nH]cnc1C)C(=O)N2)NC(C)=O` (configuration not stated), the IC50 was less than 4 µM.

`Cc1nc[nH]c1/C=C1\C(=O)Nc2ccc(F)c(C#CCN3CCOCC3)c21`: the IC50 was less than 4 µM.

With `COc1cc[nH]c1/C=C1\C(=O)Nc2ccc(NC(=O)Cc3cccs3)c(C#CCCC(=O)O)c21`, the IC50 is less than 4 µM.

`COCC#Cc1cccc2c1/C(=C/c1[nH]ccc1OC)C(=O)N2` displayed an IC50 of less than 4 µM.

`COC(=O)NCC#Cc1cccc2c1/C(=C/c1[nH]ccc1OC)C(=O)N2` came in with an IC50 of less than 4 µM.

Regarding `COc1cc[nH]c1/C=C1\C(=O)Nc2cccc(C#CCCO)c21`, the IC50 was less than 4 µM.

`COc1cc[nH]c1/C=C1\C(=O)Nc2cccc(C#CCCC(N)=O)c21` gave an IC50 of less than 4 µM.

Consider `COc1cc[nH]c1/C=C1\C(=O)Nc2cccc(C#CCC(C(=O)O)C(=O)O)c21`, for which the IC50 was less than 4 µM.

On to `COc1cc[nH]c1/C=C1\C(=O)Nc2cccc(C#CCOC(N)=O)c21`, for which the IC50 was less than 4 µM.

The molecule `CCC(O)C#Cc1c(F)ccc2c1/C(=C/c1[nH]cnc1C)C(=O)N2` (configuration not stated) returned an IC50 of less than 4 µM.

`Cc1nc[nH]c1/C=C1\C(=O)Nc2ccc(F)c(C#CC(C)(C)N)c21` came in with an IC50 of less than 4 µM.

In turn, `C#CCOCCO` yielded an IC50 of less than 4 µM.

`CCCC(C)(O)C#Cc1cccc2c1/C(=C/c1[nH]ccc1OC)C(=O)N2` (configuration not stated) yielded an IC50 of less than 4 µM.

Staying with this experiment, now noted: concentration not given here.
`COC(=O)NCC#Cc1c(F)ccc2c1/C(=C/c1[nH]cnc1C)C(=O)N2` displayed an inhibition greater than 90%.

`COc1cc[nH]c1/C=C1\C(=O)Nc2ccc([N+](=O)[O-])c(C#CCO)c21` had an inhibition greater than 90%.

Take `COC(=O)CCC#Cc1c([N+](=O)[O-])ccc2c1/C(=C/c1[nH]ccc1OC)C(=O)N2`: the inhibition is greater than 60%.

The values above are taken from the Kinase Knowledgebase extract (Sharma et al. 2016).
